Test results as given in US20240359037A1, “Ultrasound Method” (ACT THERAPEUTICS LTD, priority 2021, published 2024).

System: subcutaneous prostate cancer model (PC3)
Test: Tumour specific uptake of Evans Blue vs. Enhancement MI
Assay type: in vivo, mice
Details: Enhancement 0.5 MHz MI 0.2 compared to MI=0 (no ultrasound); 30 min after treatment
Protocol: To investigate the effect of MI variance of the US Enhancement field, tumour specific uptake of Evans Blue (EB, fluorescent dye) has been investigated in a subcutaneous prostate cancer model (PC3) in mice. Five groups with Enhancement insonation MIs of 0, 0.1, 0.2, 0.3 and 0.4 were investigated (N=3 animals per group). […] 30 min after treatment, the tumours were excised and the amount of EB was measured by spectrophotometry at 620 nm.

increase in tumour specific uptake: ~60%
Compound: Cc1cc(-c2ccc(/N=N/c3ccc4c(S(=O)(=O)O)cc(S(=O)(=O)O)c(N)c4c3O)c(C)c2)ccc1/N=N/c1ccc2c(S(=O)(=O)O)cc(S(=O)(=O)O)c(N)c2c1O [Evans Blue]
